In US20070286867A1, “Combination Therapy” (Fusion Antibodies Limited, priority 2003, published 2007):

Assays:
MCF-7 cells [1] = assay: MTT cell viability assay in MCF-7 cells; assay type: cell-based
Experimental: (§3) Cell Viability Assays. Cell viability was assessed by MTT (3-(4,5-dimethylthiazol-2-yl)-2,5-diphenyltetrazolium bromide, Sigma) assay (12). […] MTT (0.5 mg/ml) was then added to each well and the cells incubated at 37° C. for a further 3 hours. The culture medium was removed and formazan crystals reabsorbed in 200 μL DMSO. Cell viability was determined by reading the absorbance of each well at 570 nm using a 96-well microplate reader (Molecular Devices, Wokingham, England). […] Twenty microlitres (20 μL) MTT (5 mg/ml) was then added to each well and the cells incubated at 37° C. for a further 3 hours. The culture medium was removed and formazan crystals reabsorbed in 200 μL DMSO. Cell viability was determined by reading the absorbance of each well at 570 nm using an ELISA plate reader (Molecular Devices).
(§4) Statistical Analyses. The nature of the interaction between the chemotherapeutic drugs and CH-11 was determined by calculating the R index (RI), which was initially described by Kern and later modified by Romaneli (13, 14). […] Synergism is then defined as an RI of greater than unity. […] To further assess the statistical significance of the interactions, the inventors designed a univariate ANOVA analysis using the SPSS software package. This was an additive model based on the null hypothesis that there was no interaction between the drugs.

HCT116p53^+/+ cells = assay: MTT cell viability assay in HCT116 p53 wild-type cells; assay type: cell-based, human; conditions: range of drug concentrations 24 hours, then CH-11 200 ng/ml for 48 hours
Experimental: as §3, §4

HCT116p53^−/− cells = assay: MTT cell viability assay in HCT116 p53 null cells; assay type: cell-based, human; conditions: range of drug concentrations 24 hours, then CH-11 200 ng/ml for 48 hours
Experimental: as §3, §4

[2] = tested on: R175H p53 mutant cell line
Experimental: Plasmids containing the p53 mutations R175H and R248W were kindly provided by Prof. G. Lozano (MD Anderson Cancer Center, Houston). […] Cells were seeded on p90 dishes in Optimem, (Invitrogen) supplemented with 10% FCS, at a density of 1×10^5 cells/dish. Transfection was carried out the following day when the monolayer was approximately 70% confluent. Cells were cotransfected with 1 μg pIRESpuro3 DNA and 20 μg pC53NN p53 mutant DNA using Genejuice Transfection reagent (Novagen, CA, USA) according to the manufacturer's instructions. Stably transfected cells were selected over approximately 14 days in medium containing […] puromycin. […] The DO-1 antibody binds to an N-terminal epitope between amino acid residues 11 and 25.
Cell Viability Assays. Cell viability was assessed by MTT (3-(4,5-dimethylthiazol-2-yl)-2,5-diphenyltetrazolium bromide, Sigma) assay (12). […] Cell viability was determined by reading the absorbance of each well at 570 nm using a 96-well microplate reader (Molecular Devices, Wokingham, England). […]
Statistical Analyses. The nature of the interaction between the chemotherapeutic drugs and CH-11 was determined by calculating the R index (RI), which was initially described by Kern and later modified by Romaneli (13, 14). […]

MCF-7 cells [3] = assay: Flow cytometry of propidium iodide stained cells, sub-G1/G0 apoptotic fraction, MCF-7; assay type: cell-based; conditions: 5 μM 5-FU alone 96 hours, or 72 hours followed by 250 ng/ml CH-11 24 hours
Experimental: (§1) Where flow cytometric analysis was employed in Examples 1 to 5, the following protocol was used. Cells were seeded at 1×10^5 per well of a 6-well tissue culture plate. […] DNA content of harvested cells was evaluated after propidium iodide staining of cells using the EPICS XL Flow Cytometer (Coulter, Miami, Fla.). Where flow cytometric analysis was employed in Examples 6 to 12, the following protocol was used. Cells were seeded at 1×10^5 per well of a 6-well tissue culture plate. […] DNA content of harvested cells was evaluated after propidium iodide staining of cells using the EPICS XL Flow Cytometer (Coulter). A FITC-conjugated monoclonal anti-human Fas antibody (DAKO) was used to determine cell surface expression of the receptor. Cells were collected and washed twice in PBS before incubating in the antibody (1/20 dilution) at 4° C. for 30 mins. A non-reactive FITC-conjugated mouse IgG1 antibody was used as a negative control for each sample. Following incubation the cells were washed twice with PBS containing 2% bovine serum albumin and fixed in 0.3 mL 4% paraformaldehyde. Samples were then analysed on the EPICS XL Flow Cytometer (Coulter).

M7TS90-E6 cells = assay: Flow cytometry sub-G1/G0 apoptotic fraction, M7TS90-E6; assay type: cell-based; conditions: 96 hours after drug treatment; RTX 100 nM, MTA 1 μM, 5-FU 10 μM
Experimental: as §1

Fas [4] = assay: Western blot of Fas expression in MCF-7 cells; assay type: cell-based
Experimental: (§2) Western Blotting. Western blots were performed as previously described (6). The Fas/CD95, Bc1-2 and BID (Santa Cruz Biotechnology, Santa Cruz, Calif.), caspase 8 (Oncogene Research Products, Darmstadt, Germany), p53 (Santa Cruz Biotechnology), and PARP (Pharmingen, BD Biosciences, Oxford, England) mouse monoclonal antibodies were used in conjunction with a horseradish peroxidase (HRP)-conjugated sheep anti-mouse secondary antibody (Amersham, Little Chalfont, Buckinghamshire, England). FasL rabbit polyclonal antibody (Santa Cruz Biotechnology) was used in conjunction with an HRP-conjugated donkey anti-rabbit secondary antibody (Amersham). TS sheep monoclonal primary antibody (Rockland, Gilbertsville, Pa.) was used in conjunction with an HRP-conjugated donkey anti-sheep secondary antibody (Serotech, Oxford, England). Equal loading was assessed using a β-tubulin mouse monoclonal primary antibody (Sigma).

Fas [5] = assay: Western blot of Fas expression in HCT116 p53 wild-type cells; assay type: cell-based, human
Experimental: as §2

Fas [6] = assay: Western blot of Fas expression in RKO cells; assay type: cell-based; conditions: 48 hours post-treatment; MTA data not shown
Experimental: as §2

Fas [7] = assay: Western blot of Fas expression in M7TS90-E6 cells; assay type: cell-based; conditions: 10 μM 5-FU, 100 nM RTX or 1 μM MTA
Experimental: as §2

Fas [8] = assay: Western blot of Fas expression in H630 cells; assay type: cell-based; conditions: range of concentrations, 48 hours
Experimental: as §2

FasL = assay: Western blot of FasL expression in MCF-7 cells; assay type: cell-based; conditions: IC60 doses, 72 hours
Experimental: as §2

procaspase 8, BID, PARP = assay: Western blot of procaspase 8, BID and PARP in MCF-7 cells; assay type: cell-based; conditions: 5 μM 5-FU or 25 nM RTX 72 hours; CH-11 250 ng/ml 24 hours
Experimental: as §2

Fas mRNA = assay: Northern blot of Fas mRNA in MCF-7 cells; assay type: cell-based; conditions: 48 hours, 5 μM 5-FU
Experimental: Northern blot analysis. Northern blots were performed as described previously using a cDNA probe complementary to the Fas coding region (7). Equal loading was assessed using a P-tubulin cDNA probe.

Fas/CD95 mRNA = assay: Real-time PCR of Fas/CD95 mRNA in HCT116 p53 null cells; assay type: cell-based, human; conditions: IC60 72hrs doses, 24 and 48 hours
Experimental: Real-time PCR was performed using a DNA Engine Opticon 2 (MJ Research Incorporated). TheDyNAmo SYBR Green qPCR kit (Finnzymes) was used as the fluoresent dye specific for double-stranded DNA. PCR conditions consisted of an initial denaturation step of 95° C. for 10 minutes, followed by 39 cycles of 94° C. for 10 secs, 55° C. for 20 secs and 72° C. for 20 secs, with a final extension of 72° C. for 10 minutes. A melting curve was included at the end of each run to check the specificity of the amplified product. Experiments were performed in triplicate to ensure reproducibility of the technique. On completion of the run the PCR products were run put on a 2% ethidium bromide agarose gel to confirm that their size matched that of the expected amplicon. Primer sequences were as follows: Fas (Forward) […], Fas (Reverse) […], 18S (Forward) […], 18S (Reverse) […].

Fas/CD95 receptor = assay: Flow cytometry of Fas/CD95 cell surface expression, HCT116 p53 wild-type; assay type: cell-based, human; conditions: 24 hours
Experimental: as §1

Fas receptor = assay: Fas/CD95 cell surface expression in p53 mutant H630 cell line (Example 11); assay type: cell-based; conditions: 48 hours; 5-FU 5 μM, CPT-11 5 μM, Oxaliplatin 1 μM
Experimental: as §1

O=c1[nH]cc(F)c(=O)[nH]1 [5-FU, 5-fluorouracil]
cytotoxicity at 5 µM (MCF-7 cells [1]; Homo sapiens, MCF7, read-out: decrease in cell viability compared to control): ~60%
IC60 dose (MCF-7 cells [1]; MCF-7): 5 µM
interaction with CH-11 in MTT assay (HCT116p53^+/+ cells): significant synergy
interaction with CH-11 in MTT assay (HCT116p53^−/− cells): only slight interaction
synergistic cytotoxicity of combination with CH-11 [2]: synergistic cytotoxicity was demontsrated
induction of apoptosis (sub-G1/G0 fraction) (MCF-7 cells [3]): ~2 fold
induction of apoptosis by drug alone (M7TS90-E6 cells): little apoptosis
Fas protein up-regulation (Fas [4]; 72 hours, IC60 dose (5 μM 5-FU, 25 nM RTX)): ~12 fold
Fas expression (Fas [4]; MTA data not shown, CH-11 alone 250 ng/ml, 5-FU alone 5 μM): dramatic up-regulation
induction of Fas/CD95 protein (Fas [5]; 5-FU 5 μM, CPT-11 5 μM, Oxaliplatin 1 μM for 48 hours): significant induction
up-regulation of Fas expression (Fas [5]; after 48 hours): > 10 fold
Fas expression (Fas [6]): dramatic Fas up-regulation
Fas up-regulation (Fas [7]): did not result in Fas up-regulation
Fas expression (Fas [8]): not significantly altered
FasL expression (FasL): unaffected
activation of caspase 8 and BID (processing of procaspase 8 and full-length BID), words (procaspase 8, BID, PARP): neither caspase 8, nor its substrate BID were activated
Fas mRNA expression (Fas mRNA): up-regulated
maximum induction of Fas mRNA (Fas/CD95 mRNA): 2 fold
induction of Fas/CD95 receptor cell surface expression (Fas/CD95 receptor): significantly induce expression
induction of the Fas receptor (Fas receptor): Neither 5-FU nor Oxaliplatin treatment for 48 hours caused significant upregulation
